Source: ChEMBL document CHEMBL6087464, “Design, Synthesis, and Biological Evaluation of 3,4-Dihydroisoquinolin-1(2H)-one Derivatives as Protein Arginine Methyltransferase 5 Inhibitors for the Treatment of Non-Hodgkin's Lymphoma” (J Med Chem, 2025)

Key:
[1] = Half-life in Sprague-Dawley rat at 10 mg/kg, po by LC-MS/MS analysis; type: ADME, organism-based; conditions: Sprague-Dawley, in vivo
[2] = Tmax in Sprague-Dawley rat at 10 mg/kg, po by LC-MS/MS analysis; type: ADME, organism-based; conditions: Sprague-Dawley, in vivo, read-out: Tmax
[3] = AUC (0 to t) in Sprague-Dawley rat at 10 mg/kg, po by LC-MS/MS analysis; type: ADME, organism-based; conditions: Sprague-Dawley, in vivo
[4] = Oral bioavailability in Sprague-Dawley rat at 10 mg/kg by LC-MS/MS analysis; type: ADME, organism-based; conditions: in vivo
[5] = AUC (0 to t) in Sprague-Dawley rat at 2 mg/kg, iv by LC-MS/MS analysis; type: ADME, organism-based; conditions: in vivo
[6] = MRT (0 to t) in Sprague-Dawley rat at 2 mg/kg, iv by LC-MS/MS analysis; type: ADME, organism-based; conditions: in vivo
[7] = Clearance in Sprague-Dawley rat at 2 mg/kg, iv by LC-MS/MS analysis; type: ADME, organism-based; conditions: in vivo
[8] = molecular target: Voltage-gated inwardly rectifying potassium channel KCNH2 (Homo sapiens, UniProt Q12809); assay: Inhibition of human ERG; type: toxicity
[9] = molecular target: Protein arginine N-methyltransferase 3 (Homo sapiens, UniProt O60678); assay: Inhibition of PRMT3 (unknown origin)
[10] = molecular target: Protein arginine N-methyltransferase 6 (Homo sapiens, UniProt Q96LA8); assay: Inhibition of PRMT6 (unknown origin)
[11] = molecular target: T1, Protein arginine N-methyltransferase 7 (Homo sapiens, UniProt Q9NVM4); assay: Inhibition of PRMT7 (unknown origin)
T1 sequence (Q9NVM4 whole entry): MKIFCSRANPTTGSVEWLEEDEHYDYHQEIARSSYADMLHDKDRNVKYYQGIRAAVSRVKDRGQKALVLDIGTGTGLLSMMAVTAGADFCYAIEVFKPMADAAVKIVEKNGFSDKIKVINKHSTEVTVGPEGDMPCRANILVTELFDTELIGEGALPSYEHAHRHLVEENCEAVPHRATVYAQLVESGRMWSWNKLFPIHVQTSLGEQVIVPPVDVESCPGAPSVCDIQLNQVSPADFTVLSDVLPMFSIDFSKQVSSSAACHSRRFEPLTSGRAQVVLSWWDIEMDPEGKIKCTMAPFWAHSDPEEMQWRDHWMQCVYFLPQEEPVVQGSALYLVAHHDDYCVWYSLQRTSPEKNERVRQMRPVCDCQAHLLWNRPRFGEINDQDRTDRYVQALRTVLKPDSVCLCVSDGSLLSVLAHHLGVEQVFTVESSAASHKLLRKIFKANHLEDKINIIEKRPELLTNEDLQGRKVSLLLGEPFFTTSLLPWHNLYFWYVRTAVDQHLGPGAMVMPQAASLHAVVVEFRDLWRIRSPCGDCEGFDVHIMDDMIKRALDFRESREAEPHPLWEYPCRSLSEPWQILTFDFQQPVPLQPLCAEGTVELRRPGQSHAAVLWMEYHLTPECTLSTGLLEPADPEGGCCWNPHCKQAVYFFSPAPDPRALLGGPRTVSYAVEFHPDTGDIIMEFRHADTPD

[12] = molecular target: Protein arginine N-methyltransferase 8 (Homo sapiens, UniProt Q9NR22); assay: Inhibition of PRMT8 (unknown origin)
Z-138 [13] = assay: Induction of apoptosis in human Z138 cells assessed as viable cells at 0.4 nM incubated for 168 hrs by Annexin V-FITC/PI staining based flow cytometric analysis (reference value: 94.4 %); type: functional; conditions: read-out: Activity
Z-138 [14] = assay: Induction of apoptosis in human Z138 cells assessed as early apoptotic cells at 0.4 nM incubated for 168 hrs by Annexin V-FITC/PI staining based flow cytometric analysis (reference value: 1.68 %); type: functional
Z-138 [15] = assay: Induction of apoptosis in human Z138 cells assessed as late apoptotic cells at 0.4 nM incubated for 168 hrs by Annexin V-FITC/PI staining based flow cytometric analysis (reference value: 0.37 %); type: functional
Z-138 [16] = assay: Induction of apoptosis in human Z138 cells assessed as necrotic cells at 0.4 nM incubated for 168 hrs by Annexin V-FITC/PI staining based flow cytometric analysis (reference value: 3.54 %); type: functional
Z-138 [17] = assay: Induction of apoptosis in human Z138 cells assessed as viable cells at 2.0 nM incubated for 168 hrs by Annexin V-FITC/PI staining based flow cytometric analysis (reference value: 94.4 %); type: functional; conditions: read-out: Activity
Z-138 [18] = assay: Induction of apoptosis in human Z138 cells assessed as early apoptotic cells at 2.0 nM incubated for 168 hrs by Annexin V-FITC/PI staining based flow cytometric analysis (reference value: 1.68 %); type: functional
Z-138 [19] = assay: Induction of apoptosis in human Z138 cells assessed as late apoptotic cells at 2.0 nM incubated for 168 hrs by Annexin V-FITC/PI staining based flow cytometric analysis (reference value: 0.37 %); type: functional
Z-138 [20] = assay: Induction of apoptosis in human Z138 cells assessed as viable cells at 10.0 nM incubated for 168 hrs by Annexin V-FITC/PI staining based flow cytometric analysis (reference value: 94.4 %); type: functional; conditions: read-out: Activity
Z-138 [21] = assay: Induction of apoptosis in human Z138 cells assessed as late apoptotic cells at 10.0 nM incubated for 168 hrs by Annexin V-FITC/PI staining based flow cytometric analysis (reference value: 0.37 %); type: functional
Z-138 [22] = assay: Induction of apoptosis in human Z138 cells assessed as viable cells at 50.0 nM incubated for 168 hrs by Annexin V-FITC/PI staining based flow cytometric analysis (reference value: 94.4 %); type: functional; conditions: read-out: Activity
Z-138 [23] = assay: Induction of apoptosis in human Z138 cells assessed as necrotic cells at 50.0 nM incubated for 168 hrs by Annexin V-FITC/PI staining based flow cytometric analysis (reference value: 3.54 %); type: functional
Z-138 [24] = assay: Cell cycle arrest in human Z138 cells assessed as increase in DNA content at 0.4 nM incubated for 168 hrs by RNase A/PI staining based flow cytometric analysis relative to control; type: functional
Z-138 [25] = assay: Cell cycle arrest in human Z138 cells assessed as increase in DNA content at 50.0 nM incubated for 168 hrs by RNase A/PI staining based flow cytometric analysis relative to control; type: functional
[26] = Hematological toxicity in human CD34-positive hematopoietic stem/progenitor cell supplemented with megakaryocytic lineage assessed as reduction in cell viability incubated for 14 days by luminometric analysis; type: cell-based

Chain of Protein arginine N-methyltransferase 8 (Q9NR22 whole entry): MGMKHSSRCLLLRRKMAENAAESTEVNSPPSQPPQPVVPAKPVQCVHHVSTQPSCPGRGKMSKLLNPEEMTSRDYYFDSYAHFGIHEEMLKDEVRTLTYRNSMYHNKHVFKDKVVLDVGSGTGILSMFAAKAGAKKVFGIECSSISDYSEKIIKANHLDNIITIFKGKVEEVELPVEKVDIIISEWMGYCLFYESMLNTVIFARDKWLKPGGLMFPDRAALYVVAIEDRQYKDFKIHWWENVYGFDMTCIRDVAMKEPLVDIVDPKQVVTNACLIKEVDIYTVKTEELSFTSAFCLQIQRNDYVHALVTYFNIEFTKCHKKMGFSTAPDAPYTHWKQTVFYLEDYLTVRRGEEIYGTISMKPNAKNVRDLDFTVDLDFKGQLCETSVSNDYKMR
Chain of Voltage-gated inwardly rectifying potassium channel KCNH2 (Q12809 whole entry): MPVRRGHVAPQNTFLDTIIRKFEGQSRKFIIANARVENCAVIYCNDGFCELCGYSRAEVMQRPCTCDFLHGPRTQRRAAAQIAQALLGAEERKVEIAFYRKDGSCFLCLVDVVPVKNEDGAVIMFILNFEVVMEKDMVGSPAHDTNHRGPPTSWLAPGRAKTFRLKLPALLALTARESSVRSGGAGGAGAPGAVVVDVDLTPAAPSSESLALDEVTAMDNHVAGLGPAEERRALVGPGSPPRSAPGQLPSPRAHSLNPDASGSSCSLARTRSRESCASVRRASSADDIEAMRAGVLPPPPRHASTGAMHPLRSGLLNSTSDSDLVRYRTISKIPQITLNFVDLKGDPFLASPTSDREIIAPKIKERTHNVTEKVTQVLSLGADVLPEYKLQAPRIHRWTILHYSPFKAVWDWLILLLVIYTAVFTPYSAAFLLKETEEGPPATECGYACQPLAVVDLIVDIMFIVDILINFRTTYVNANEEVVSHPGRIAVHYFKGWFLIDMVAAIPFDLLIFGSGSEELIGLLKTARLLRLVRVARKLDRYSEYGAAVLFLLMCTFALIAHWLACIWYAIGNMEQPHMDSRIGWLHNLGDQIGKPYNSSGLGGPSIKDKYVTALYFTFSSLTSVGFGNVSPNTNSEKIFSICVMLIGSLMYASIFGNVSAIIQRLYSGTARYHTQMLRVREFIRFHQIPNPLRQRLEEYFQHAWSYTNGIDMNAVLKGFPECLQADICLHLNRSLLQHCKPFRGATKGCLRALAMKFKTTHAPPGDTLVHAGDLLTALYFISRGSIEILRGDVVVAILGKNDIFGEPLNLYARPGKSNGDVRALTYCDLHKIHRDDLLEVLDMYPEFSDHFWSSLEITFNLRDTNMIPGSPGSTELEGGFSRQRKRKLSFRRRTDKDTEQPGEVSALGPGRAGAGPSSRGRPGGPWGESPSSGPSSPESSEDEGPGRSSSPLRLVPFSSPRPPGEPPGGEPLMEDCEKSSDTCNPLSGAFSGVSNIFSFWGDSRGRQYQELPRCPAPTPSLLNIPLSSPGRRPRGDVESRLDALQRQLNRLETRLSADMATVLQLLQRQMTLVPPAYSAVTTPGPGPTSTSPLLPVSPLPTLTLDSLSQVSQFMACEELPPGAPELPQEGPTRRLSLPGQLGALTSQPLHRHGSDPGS
Chain of Protein arginine N-methyltransferase 6 (Q96LA8 whole entry): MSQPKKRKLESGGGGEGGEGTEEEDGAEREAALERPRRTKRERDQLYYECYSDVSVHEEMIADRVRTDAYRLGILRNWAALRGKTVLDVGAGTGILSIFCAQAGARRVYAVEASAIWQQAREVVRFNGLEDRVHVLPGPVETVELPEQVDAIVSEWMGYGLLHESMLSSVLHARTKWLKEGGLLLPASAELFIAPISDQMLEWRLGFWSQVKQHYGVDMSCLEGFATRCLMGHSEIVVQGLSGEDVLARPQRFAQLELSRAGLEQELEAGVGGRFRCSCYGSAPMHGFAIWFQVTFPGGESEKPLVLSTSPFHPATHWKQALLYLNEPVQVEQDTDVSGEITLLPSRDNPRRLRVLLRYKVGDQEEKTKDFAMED
Chain of Protein arginine N-methyltransferase 3 (O60678 whole entry): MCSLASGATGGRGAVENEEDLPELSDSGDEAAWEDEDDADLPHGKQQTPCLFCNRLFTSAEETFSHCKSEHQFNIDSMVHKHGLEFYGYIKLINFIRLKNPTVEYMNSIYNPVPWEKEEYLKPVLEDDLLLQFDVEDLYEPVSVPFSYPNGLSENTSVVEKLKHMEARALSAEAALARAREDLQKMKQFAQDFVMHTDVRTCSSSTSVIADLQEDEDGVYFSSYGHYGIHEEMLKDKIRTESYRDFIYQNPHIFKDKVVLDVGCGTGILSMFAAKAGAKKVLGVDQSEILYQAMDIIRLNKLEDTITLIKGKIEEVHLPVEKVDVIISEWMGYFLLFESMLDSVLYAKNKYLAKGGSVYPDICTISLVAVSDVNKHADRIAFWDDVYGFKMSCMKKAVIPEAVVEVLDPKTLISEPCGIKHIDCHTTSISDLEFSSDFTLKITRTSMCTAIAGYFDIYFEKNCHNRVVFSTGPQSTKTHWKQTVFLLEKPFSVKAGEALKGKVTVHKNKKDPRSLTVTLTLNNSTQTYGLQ

| Structure (SMILES) | half-life [1] [min] | Tmax [2] [min] | AUC(0-t) [3] [ng·h/mL] | bioavailability [4] [%] | AUC(0-t) [5] [ng·h/mL] | MRT last [6] [min] | clearance [7] [mL/min/kg] | IC50 [8] [µM] | IC50 [9] [µM] | IC50 [10] [µM] | IC50 [11] [µM] | IC50 [12] [µM] | viability at 0.0004 µM (Z-138 [13]) [%] | Activity (Z-138 [14]) [%] | Activity (Z-138 [15]) [%] | Activity (Z-138 [16]) [%] | viability at 0.002 µM (Z-138 [17]) [%] | Activity (Z-138 [18]) [%] | Activity (Z-138 [19]) [%] | viability at 0.01 µM (Z-138 [20]) [%] | further results |
| --- | --- | --- | --- | --- | --- | --- | --- | --- | --- | --- | --- | --- | --- | --- | --- | --- | --- | --- | --- | --- | --- |
| CC(=O)N1CC2(CC(Nc3cc4c(cn3)C3(CC3)CN(C[C@H](O)CN3CCc5ccccc5C3)C4=O)C2)C1 | 132 | 6 | 1030 | 26.7 | 771 | 30 | 41.7 | > 15 | > 10 | > 10 | > 10 | > 10 | 95.3 | 1.89 | 0.44 | 2.41 | 62.1 | 22 | 9.25 | 9.21 | Activity (Z-138 [21]): 32.4%; viability at 0.05 µM (Z-138 [22]): 7.61%; Activity (Z-138 [23]): 2.87%; Activity (Z-138 [24]): 52.4%; Activity (Z-138 [25]): 71.6%; IC50 at 14 days [26]: 0.106 µM |
| CC(=O)N1CCC(Nc2cc(C(=O)NC[C@H](O)CN3CCc4ccccc4C3)ncn2)CC1 [PEMRAMETOSTAT] | 36 | 78 | 404 | 13.5 | 598 | 24 | 56.7 | > 15 | > 10 | > 10 | > 10 | > 10 | 95.6 | 1.53 | 0.33 | 2.52 | 95.1 | 1.97 | 0.31 | 86 | Activity (Z-138 [21]): 1.53%; viability at 0.05 µM (Z-138 [22]): 53.4%; Activity (Z-138 [23]): 5.13%; Activity (Z-138 [24]): 50.9%; Activity (Z-138 [25]): 59.2%; IC50 at 14 days [26]: 0.055 µM |
